Here are results for 1 molecule from paper PMC11661381, “Covalent-fragment screening identifies selective inhibitors of multiple Staphylococcus aureus serine hydrolases important for growth and biofilm formation” (Research Square, 2024).

For one test, the target named is T1, rFphE (Staphylococcus aureus, UniProt Q2FDS6).
T1 construct: otherwise full-length FphE (Uniprot ID Q2FDS6) and FphH (A0A0H2XJL0) proteins; His6 (3C-cleavable, pETNKI-his-3C-LIC vector) (N); made in house; E. coli is inferred from the pET28a-type vector, IPTG induction and LB/kanamycin
T1 sequence (Q2FDS6 1-276): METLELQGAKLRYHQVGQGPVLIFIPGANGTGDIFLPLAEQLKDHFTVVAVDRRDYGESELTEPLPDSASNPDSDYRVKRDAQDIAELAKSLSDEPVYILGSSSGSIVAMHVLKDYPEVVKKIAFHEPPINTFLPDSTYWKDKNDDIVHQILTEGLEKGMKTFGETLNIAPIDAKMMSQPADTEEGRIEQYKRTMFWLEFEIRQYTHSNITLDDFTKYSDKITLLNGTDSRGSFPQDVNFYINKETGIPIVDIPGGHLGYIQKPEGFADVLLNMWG
Kind of test: FP-Cy5 active site labeling competition of recombinant protein, rFphE. In kind it is binding. The procedure: For activity-based protein labeling experiments, 500 nM of rFphB, rFphE and rFphH in 1X PBS and 0.1% Triton–X were preincubated with different concentrations of inhibitors or DMSO for 2hr at room temperature, followed by adding 300 nM of fluorophosphonate (FP) alkyne and incubated for 30 min at room temperature. Next, 20 μL of the reaction volume were mixed with 2.16 μL of freshly prepared click mix (0.5 μL of 50 mM CuSO4 in H2O, 1.16 μL of 100 mM BTTAA in DMSO, and 0.5 μL of N3-Cy5 in DMSO) and 1.16 μL of 300 mM sodium ascorbate solution in H2O. Samples were incubated at 37°C for 30 min, boiled in SDS loading buffer and analyzed by SDS–PAGE. Cy5 fluorescence was imaged using the Cy5 channel on a Typhoon 9410 Imager (Amersham Biosciences).

The next test concerns Escherichia coli. Briefly: Bacterial growth inhibition assay, E. coli. In kind it is cell-based.
Test [1] concerns S. aureus biofilm formation. Kind of test: Crystal violet biofilm inhibition assay. It counts as cell-based, Staphylococcus aureus. To be noted: fphH or fphE transposon mutant. The procedure:
Overnight cultures of S. aureus (wild-type, transposon mutants and complemented) strains (Table S3) grown in TSB, were subcultured on fresh TSB and grown to OD600 of 0.5. Biofilms were cultured in 96 well plates by transferring 1 μL of the culture to 200 μL of TSB plus 1% glucose with or without the inhibitors and incubated for 16 hours at 37°C without agitation. The inhibitor concentrations ranged from 1, 5, 10, 50 and 100 μM final concentration. Equal volume of DMSO was added as control. The wells were washed to remove the planktonic cells and the plates air-dried before staining with 200μL of 0.1% w/v crystal violet for 10 minutes at room temperature. The wells were washed to remove excess dye and blotted to dry. Each well was filled with 200μL of DMSO for 10 minutes at room temperature to dissolve the dye. The absorbance was measured at 590 nm using Spark multimode microplate reader (TECAN). The data represents n = 3 independent experiments and are expressed as a percentage of the uninhibited wild-type bacteria. All the data are normalized such that 100% represent untreated WT S. aureus. P values were determined using ordinary one-way ANOVA multiple comparisons GraphPad Prism 10.0 software. *P < 0.05, **P < 0.01, ***P < 0.001 and ****P < 0.0001.

The target of another test is T2, recombinant FphE (rFphE) (Staphylococcus aureus, UniProt Q2FDS6).
T2 construct: otherwise full-length FphE (Uniprot ID Q2FDS6) and FphH (A0A0H2XJL0) proteins; His6 (3C-cleavable, pETNKI-his-3C-LIC vector) (N); made in house; E. coli is inferred from the pET28a-type vector, IPTG induction and LB/kanamycin
T2 sequence (Q2FDS6 1-276): T1 sequence (Q2FDS6 1-276)
Briefly: biochemical. To be noted: IC50 rFphE, value in nM. The procedure: Fluorogenic substrate assays were performed as previously described[9],[11],[12]. […] Turnover rates in the linear phase of the reaction (10–20 min) were calculated using GraphPad prism 10.0 software as RFU/min. Rates were normalized by subtracting background hydrolysis rates measured for each substrate in reaction buffer in the absence of protein.
For the screening, 8 μL of enzyme solution was pipetted into the assay plates containing 50 nL compound and allowed to incubate for one hour at room temperature. […] For four-point dose response plates, 2.5, 10, 25, 50 nL droplets were transferred to get […], 10, 25, 50 μM compound concentrations in the 384 well plates again using an Echo acoustic liquid handler as above. […] Calculations were done with GraphPad Prism 10.0 software. […] IC50 values were derived from the fitted curve.

Test [2] concerns S. aureus wild type and fph transposon mutants. Briefly: Bacterial growth inhibition assay, S. aureus. To be noted: 1–100 μM. It counts as cell-based, Staphylococcus aureus. How it is done: Bacteria were streaked from glycerol stocks onto agar plates and grown overnight at 37°C. A single colony was inoculated in either Tryptic Soy Broth (TSB; Sigma-Aldrich, St. Louis, MO; used for most species) or Bacto Brain Heart Infusion (BHI; Becton, Dickinson, and Company, Franklin Lakes, NJ; used for L. monocytogenes and S. pyogenes) and grown at 37°C shaking until mid-exponential phase (OD600 = 0.5), then diluted 1:10 in cation-adjusted Mueller Hinton Broth (MHB2, Millipore Sigma, Bedford, MA; used for most species) or BHI (for L. monocytogenes and S. pyogenes). 15 μl of this dilution was added to 135 μl of MHB2 or BHI in a flat-bottom clear 96-well plate for a starting inoculum of ~ 5 × 10^5 CFU/ml.
For bacterial growth inhibition assay, wild-type S. aureus and transposon mutants (fphB::Tn, fphE::Tn and fphH::Tn) were grown with compounds at final concentrations ranging from 1–100 μM and compared to growth in media with an equivalent percentage of DMSO. Each condition was plated as technical duplicates. The plate was incubated at 37°C with shaking every 15 minutes followed by measurement of OD600 for 14 hr. All growth curves were repeated at least twice and analyzed in GraphPad Prism 10.0 software. For bacterial resistance analysis, overnight culture of S. aureus Newman was diluted to an OD600 of 0.01 in MHB. This was followed by pretreatment with 20 μM N34 or equivalent DMSO volume as control. The pretreatment was allowed to proceed for 3 hr before initiating treatment with different concentrations of the test antibiotics (Table S5). The cultures were incubated overnight at 37°C, 5% CO2 before their optical density was read. The EC50 of the antibiotics against the bacteria in the presence or absence of N34 were determined by fitting the normalized data into a four-parameter logistic model in GraphPad Prism 10.0 software.

SMILES strings stand for the structures.

`OB(O)c1csc2ccccc12` [Z27, Benzo[b]thiophen-3-ylboronic acid]: on rFphE, the “concentration inhibiting FP-Cy5 labeling of rFphE” value is over 50 µM. Moreover, the “growth defect (in words)” value in the test with Escherichia coli is “no significant growth defect”. In addition, the “effect on biofilm formation in transposon mutants (in words)” value in test [1] is “further reduced by the inhibitor Z27 only at the highest concentrations used (50 and 100 μM)”. For the same molecule, at recombinant FphE (rFphE), the IC50 amounted to 50 nM. The “effect on S. aureus growth (in words)” value in test [2] is given as “reduced growth for only the fphE mutant”.
